# Assay results as given in article PMC3784060 (Cancer Chemotherapy and Pharmacology, 2013).
# “And” between values parts separate entries of the source, which are not always exact repeats. Equal values may be shown once.
# Experiments:
# [1] = phase II study in acute leukemia: toxicity (NCI CTCAE version 3.0); format: in vivo, human
# Protocol: The study was approved by the Institutional Review Board (IRB) at each participating institution and was conducted in accordance with the Declaration of Helsinki and in compliance with International Conference on Harmonization Good Clinical Practice Guidelines. Written informed consent was obtained from all patients before study enrollment.
# (§1) Each cycle lasted 21 days. Patient could continue treatment on the study in the absence of disease progression or unacceptable toxicity. The next cycle of therapy could start if non-hematologic toxicity from previous cycle recovered to ≤grade 1, and dose delay of up to 3 weeks was allowed for recovery. Permanent dose reduction was required for any ≥grade 3 clinically significant non-hematologic adverse event (70 mg/m^2 → 50 mg/m^2; 50 mg/m^2 → 40 mg/m^2; 40 mg/m^2 → 30 mg/m^2; 30 mg/m^2 → discontinue). To allow for continued treatment of subjects whose cytopenias were due to leukemia and not due to drug toxicity, subsequent cycles of treatment were allowed if absolute neutrophil count (ANC) ≥0.5 × 10^9/L or for ANC <0.5 × 10^9/L but no more than 20 % below the baseline pretreatment levels and platelet count ≥20 × 10^9/L or platelets <20 × 10^9/L but no more than 20 % below the baseline pretreatment levels. Anti-emetic prophylaxis including serotonin-receptor antagonist, metoclopramide, or prochloperazine with or without dexamethasone was allowed. […] Dexamethasone 20 mg IV was given early if symptoms of cytokine release syndrome were observed.
# (§2) Response was assessed by bone marrow (BM) examination on day 21 of cycles 1 and 2, and every 6 weeks thereafter until complete remission or progressive disease (PD). Response was determined according to the revised recommendations of the International Working Group (IWG) for AML [33]. Toxicities were graded according to the National Cancer Institute Common Terminology Criteria for Adverse Events (NCI CTCAE), version 3.0 (http://ctep.cancer.gov/protocolDevelopment/electronic_applications/docs/ctcaev3.pdf). Hematologic and chemistry profiles were monitored on day 1 and 2 of each cycle or until resolution of acute toxicities and subsequently at least once a week or more frequently depending on the individual patient’s needs.
# [2] = test system: relapsed/refractory AML and ALL; assay: phase II study in acute leukemia: response, blast/WBC reduction, time to progression; format: in vivo, human; conditions: for median WBC count: pretreatment 2,650
# Protocol: as §1, §2
# The primary efficacy endpoint of the study was the ORR, including complete remission (CR), CR with incomplete count recovery (CRi), and partial remission.
# [3] = plasma pharmacokinetics (HPLC-MS/MS, population PK model); conditions: human, intravenous
# Protocol: Blood samples for PK evaluations (3 mL each) were collected into prechilled K2 EDTA tubes at 0, 0.25–0.5, 1–2, and 4 h after the end of the 2-h infusion on day 1 of cycles 1, 2, and 3. Samples were kept on ice and centrifuged within 1 h of collection at 2,700g/4 °C for 10 min; separated plasma was immediately frozen on dry ice and then stored at −20 °C or below.
# A 2-compartment PPK model was developed with data from two phase I studies in solid tumors [31, 32]. The model fits were conducted using NONMEM V, level 1.1 (GloboMax LLC), and a first-order conditional estimation method was employed for all model runs. The model included between-subject variability on clearance and volume of distribution, and mixed error terms.
# [4] = dinaciclib-related hematologic toxicity
# [5] = 13 patients with circulating blasts, within 1–8 days of first dose
# [6] = AML patients, all treated subjects
# [7] = patients with circulating blasts
compound,measurement,setting,value
CCc1cnn2c(NCc3ccc[n+]([O-])c3)cc(N3CCCC[C@H]3CCO)nc12 [Dinaciclib],"Grade ≥3 fatigue, patients",[1]; 4 patients,20%
same,patients with grade ≥3 treatment-related adverse events,[1]; 15 of 20 patients,75%
same,"TLS-associated hyperkalemia, patients","[1]; Cairo-Bishop criteria, cycle 1",25%
same,"TLS-associated hyperphosphatemia, patients","[1]; Cairo-Bishop criteria, cycle 1",30%
same,"TLS-associated hyperuricemia, patients","[1]; Cairo-Bishop criteria, cycle 1",10%
same,"TLS-associated hypocalcemia, patients","[1]; Cairo-Bishop criteria, cycle 1",25%
same,patients with at least one significant TLS-associated laboratory abnormality,"[1]; Cairo-Bishop criteria, cycle 1",half of the patients
same,"Acute renal failure, All (%)",[1]; Cycle 1 n = 20,2 (10) patients (%)
same,"Acute renal failure, Grade ≥3",[1]; Cycle 1 n = 20,2 patients
same,"Anorexia, All (%)",[1]; Cycle 1 n = 20,1 (5) patients (%)
same,"Bacteremia, All (%)",[1]; Cycle 1 n = 20,2 (10) patients (%)
same,"Bacteremia, Grade ≥3",[1]; Cycle 1 n = 20,2 patients
same,"Cytokine release sy, All (%)",[1]; Cycle 1 n = 20,2 (10) patients (%)
same,"Dehydration, All (%)",[1]; Cycle 1 n = 20,1 (5) patients (%)
same,"Dehydration, Grade ≥3",[1]; Cycle 1 n = 20,1 patients
same,"Diarrhea, All (%)",[1]; Cycle 1 n = 20,14 (70) patients (%)
same,"Diarrhea, Grade ≥3",[1]; Cycle 1 n = 20,1 patients
same,"Fatigue, All (%)",[1]; Cycle 1 n = 20,6 (30) patients (%)
same,"Fatigue, Grade ≥3",[1]; Cycle 1 n = 20,2 patients
same,"Hyperbilirubinemia, All (%)",[1]; Cycle 1 n = 20,2 (10) patients (%)
same,"Hyperglycemia, All (%)",[1]; Cycle 1 n = 20,4 (20) patients (%)
same,"Hyperglycemia, Grade ≥3",[1]; Cycle 1 n = 20,2 patients
same,"Hyperkalemia, All (%)",[1]; Cycle 1 n = 20,3 (15) patients (%)
same,"Hyperkalemia, Grade ≥3",[1]; Cycle 1 n = 20,2 patients
same,"Hyperphosphatemia, All (%)",[1]; Cycle 1 n = 20,5 (25) patients (%)
same,"Hyperphosphatemia, Grade ≥3",[1]; Cycle 1 n = 20,1 patients
same,"Hypertension, All (%)",[1]; Cycle 1 n = 20,1 (5) patients (%)
same,"Hypoalbuminemia, All (%)",[1]; Cycle 1 n = 20,4 (20) patients (%)
same,"Hypocalcemia, All (%)",[1]; Cycle 1 n = 20,6 (30) patients (%)
same,"Hypocalcemia, Grade ≥3",[1]; Cycle 1 n = 20,1 patients
same,"Hypokalemia, All (%)",[1]; Cycle 1 n = 20,2 (10) patients (%)
same,"Hyponatremia, All (%)",[1]; Cycle 1 n = 20,2 (10) patients (%)
same,"Hyponatremia, Grade ≥3",[1]; Cycle 1 n = 20,1 patients
same,"Hypotension, All (%)",[1]; Cycle 1 n = 20,6 (30) patients (%)
same,"Hypotension, Grade ≥3",[1]; Cycle 1 n = 20,1 patients
same,"Increased ALT, All (%)",[1]; Cycle 1 n = 20,4 (20) patients (%)
same,"Increased AST, All (%)",[1]; Cycle 1 n = 20,8 (40) patients (%)
same,"Increased AST, Grade ≥3",[1]; Cycle 1 n = 20,3 patients
same,"Increased LDH, All (%)",[1]; Cycle 1 n = 20,2 (10) patients (%)
same,"Increased LDH, Grade ≥3",[1]; Cycle 1 n = 20,2 patients
same,"Increased creatinine, All (%)",[1]; Cycle 1 n = 20,3 (15) patients (%)
same,"Increased creatinine, Grade ≥3",[1]; Cycle 1 n = 20,1 patients
same,"Nausea, All (%)",[1]; Cycle 1 n = 20,8 (40) patients (%)
same,"Nausea, Grade ≥3",[1]; Cycle 1 n = 20,1 patients
same,"Pneumonia, All (%)",[1]; Cycle 1 n = 20,2 (10) patients (%)
same,"Pneumonia, Grade ≥3",[1]; Cycle 1 n = 20,2 patients
same,"Sinus Tachycardia, All (%)",[1]; Cycle 1 n = 20,2 (10) patients (%)
same,"Stomatitis, All (%)",[1]; Cycle 1 n = 20,1 (5) patients (%)
same,"Syncope, All (%)",[1]; Cycle 1 n = 20,1 (5) patients (%)
same,"Syncope, Grade ≥3",[1]; Cycle 1 n = 20,1 patients
same,"Tumor lysis sy, All (%)",[1]; Cycle 1 n = 20,3 (15) patients (%)
same,"Tumor lysis sy, Grade ≥3",[1]; Cycle 1 n = 20,3 patients
same,"Vomiting, All (%)",[1]; Cycle 1 n = 20,9 (45) patients (%)
same,"Dehydration, All (%)",[1]; Cycle 2 n = 10,1 (10) patients (%)
same,"Diarrhea, All (%)",[1]; Cycle 2 n = 10,7 (70) patients (%)
same,"Diarrhea, Grade ≥3",[1]; Cycle 2 n = 10,1 patients
same,"Fatigue, All (%)",[1]; Cycle 2 n = 10,2 (20) patients (%)
same,"Fatigue, Grade ≥3",[1]; Cycle 2 n = 10,1 patients
same,"Hyperbilirubinemia, All (%)",[1]; Cycle 2 n = 10,1 (10) patients (%)
same,"Hyperkalemia, All (%)",[1]; Cycle 2 n = 10,1 (10) patients (%)
same,"Hyperphosphatemia, All (%)",[1]; Cycle 2 n = 10,1 (10) patients (%)
same,"Hypoalbuminemia, All (%)",[1]; Cycle 2 n = 10,1 (10) patients (%)
same,"Hypotension, All (%)",[1]; Cycle 2 n = 10,2 (20) patients (%)
same,"Increased ALT, All (%)",[1]; Cycle 2 n = 10,1 (10) patients (%)
same,"Increased AST, All (%)",[1]; Cycle 2 n = 10,1 (10) patients (%)
same,"Nausea, All (%)",[1]; Cycle 2 n = 10,3 (30) patients (%)
same,"Pneumonia, All (%)",[1]; Cycle 2 n = 10,1 (10) patients (%)
same,"Stomatitis, All (%)",[1]; Cycle 2 n = 10,1 (10) patients (%)
same,"Stomatitis, Grade ≥3",[1]; Cycle 2 n = 10,1 patients
same,"Syncope, All (%)",[1]; Cycle 2 n = 10,1 (10) patients (%)
same,"Syncope, Grade ≥3",[1]; Cycle 2 n = 10,1 patients
same,"Vomiting, All (%)",[1]; Cycle 2 n = 10,2 (20) patients (%)
same,"Anorexia, All (%)",[1]; Cycle 3 n = 6,1 (17) patients (%)
same,"Cytokine release sy, All (%)",[1]; Cycle 3 n = 6,1 (17) patients (%)
same,"Cytokine release sy, Grade ≥3",[1]; Cycle 3 n = 6,1 patients
same,"Diarrhea, All (%)",[1]; Cycle 3 n = 6,2 (33) patients (%)
same,"Fatigue, All (%)",[1]; Cycle 3 n = 6,1 (17) patients (%)
same,"Fatigue, Grade ≥3",[1]; Cycle 3 n = 6,1 patients
same,"Hypertension, All (%)",[1]; Cycle 3 n = 6,1 (17) patients (%)
same,"Increased ALT, All (%)",[1]; Cycle 3 n = 6,1 (17) patients (%)
same,"Nausea, All (%)",[1]; Cycle 3 n = 6,1 (17) patients (%)
same,"Vomiting, All (%)",[1]; Cycle 3 n = 6,2 (33) patients (%)
same,"≥grade 3 anemia, patients",[1]; [4],25%
same,"≥grade 3 febrile neutropenia, patients",[1]; [4],25%
same,"≥grade 3 leukopenia, patients",[1]; [4],40%
same,"≥grade 3 neutropenia, patients",[1]; [4],10%
same,"≥grade 3 thrombocytopenia, patients",[1]; [4],20%
same,"Grade 1 and 2 diarrhea, patients",[1]; in vivo,70%
same,objective responses by IWG criteria,"[2]; 50 mg/m^2 2-h infusion every 21 days, 20 patients",No objective responses
same,average reduction in BM blasts,[2]; 8 of 13 patients with follow-up BM evaluations,36%
same,patients with >50 % decrease in absolute blast count (ABC),[2]; [5],77%
same,patients with >80 % decrease in absolute blast count (ABC),[2]; [5],46%
same,TTP,[2]; ALL patients,1 to 8.14 weeks
same,median TTP,[2]; AML patients included in the initial randomization,5.14 weeks
same,Beta Posterior Mean (Bayes estimate of the response rate),[2]; [6],0.071
same,Difference in observed response rate (SCH727965 - Mylotarg),[2]; [6],-12.500%
same,Number of Non-responders,[2]; [6],12
same,Number of Responders,[2]; [6],0
same,Posterior Probability (This treatment is better),[2]; [6],0.200
same,Observed Response Rate (%),"[2]; AML patients, all treated subjects, frequentist approach",0.000%
same,"Median time to progression, Estimate",[2]; all treated AML patients,5.14 weeks
same,Number of Events (progression),[2]; all treated AML patients,10
same,median WBC count,[2]; day 2,"1,045 × 10^6/L"
same,median WBC count,[2]; day 8,"1,350 × 10^6/L"
same,median duration of the WBC nadir,[2]; in vivo,5 days
same,patients with temporary decrease in PB and/or marrow blasts,[2]; in vivo,60%
same,duration of ABC nadir,[2]; [7],7 days
same,median time to ABC nadir,[2]; [7],3 days
same,median ABC nadir,"[2]; patients with circulating blasts, pre-treatment 1,130",2e+08 L⁻¹
same,TTP,"[2]; two AML patients who crossed over from GO, individual values",7.86 weeks and 9.14 weeks
same,Cmax,[3],> 4 µM
same,concentration at 2 h,[3]; 40 mg/m^2,1010 ng/mL
same,concentration at 2.25 h,[3]; 40 mg/m^2,1100 ng/mL
same,concentration at 4 h,[3]; 40 mg/m^2,118 ng/mL
same,concentration at 6 h,[3]; 40 mg/m^2,42.4 ng/mL
same,AUC,[3]; 50 mg/m^2,3560 ng·h/mL
same,concentration at 2.25 h,[3]; 50 mg/m^2,707 ng/mL
same,concentration at 2.5 h,[3]; 50 mg/m^2,354 ng/mL
same,concentration at 3 h,[3]; 50 mg/m^2,195 ng/mL
same,concentration at 4 h,[3]; 50 mg/m^2,139 ng/mL
same,concentration at 6 h,[3]; 50 mg/m^2,36.7 ng/mL
same,AUC,[3]; 70 mg/m^2,4980 ng·h/mL
same,concentration at 2 h,[3]; 70 mg/m^2,1700 ng/mL
same,concentration at 2.25 h,[3]; 70 mg/m^2,724 ng/mL
same,concentration at 2.5 h,[3]; 70 mg/m^2,457 ng/mL
same,concentration at 3 h,[3]; 70 mg/m^2,307 ng/mL
same,concentration at 4 h,[3]; 70 mg/m^2,125 ng/mL
same,concentration at 6 h,[3]; 70 mg/m^2,52.2 ng/mL
